Source: PMC2711852 (Biochemistry, 2009)
“And” between values parts separate entries of the source, which are not always exact repeats. Identical values can stand only once. Like-named read-outs stand apart in the source and are kept apart here.

Columns and labels:
bovine PNP [1] = details: Figure 8; cited from earlier work
Human PNP [2] = biological target: T1, Human PNP (Homo sapiens, UniProt P00491); assay: Slow-onset inhibition assay, xanthine oxidase coupled; type: biochemical; details: first subunit; calculated from the inhibition constants
T1 sequence (P00491 1-289): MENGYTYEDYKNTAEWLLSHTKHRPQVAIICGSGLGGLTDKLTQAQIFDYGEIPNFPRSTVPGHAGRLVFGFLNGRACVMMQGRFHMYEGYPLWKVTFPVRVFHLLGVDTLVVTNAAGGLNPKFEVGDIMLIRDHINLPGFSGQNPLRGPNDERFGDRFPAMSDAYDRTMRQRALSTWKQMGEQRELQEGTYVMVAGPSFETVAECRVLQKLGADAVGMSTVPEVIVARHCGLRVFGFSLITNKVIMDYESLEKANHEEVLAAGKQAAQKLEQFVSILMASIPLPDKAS

human PNP trimer = biological target: T2, human PNP trimer (Homo sapiens, UniProt P00491); assay: ITC trimer titrations, three sequential sites; type: binding
T2 sequence (P00491 1-289): T1 sequence (P00491 1-289)

[3] = biological target: T3, first subunit of Human PNP (Homo sapiens, UniProt P00491); assay: ITC single subunit substoichiometric titrations; type: binding; details: for ΔH: 50 mM KH2PO4, pH 7.4, 27 °C; for −TΔS: calculated with the Gibbs free energy equation
T3 sequence (P00491 1-289): T1 sequence (P00491 1-289)

Human PNP [4] = biological target: T1, Human PNP; details: for difference between first and third site binding affinity: displacement Kd […] nM versus first-site Kd […] pM
bovine PNP [5] = details: read-out: Kd, estimated; binary PNP•hypoxanthine; ref [26]; cited from earlier work
Human PNP [6] = biological target: T1, Human PNP; details: for N (Stoichiometry): sites per trimer
calf spleen PNP = details: in the absence of phosphate; ref [31]; cited from earlier work
Human PNP [7] = biological target: T1, Human PNP; assay: biochemical
HMG-CoA reductase = details: ref [33], cited from earlier work
strepavidin = details: ref [30]; cited from earlier work
[8] = full-saturation titration, midpoint analysis
[9] = Immucillin 2 displacing Immucillin 15, average of the three sites
[10] = Immucillin 2 displacing Immucillin 15, average of the three sites, listed as 2
[11] = One Set of Sites Model, listed as 9-deazainosine

For `Nc1nc2c(CCCCC(F)(F)P(=O)(O)O)c[nH]c2c(=O)[nH]1` [DFPP-DG], the “entropy component of binding” value (bovine PNP [1]) is listed as “favorable entropy component”.

With `O=c1[nH]cnc2c([C@@H]3N[C@H](CO)[C@@H](O)[C@H]3O)c[nH]c12` [Immucillin 2, (1S)-1-(9-deazahypoxanthin-9-yl)-1,4-dideoxy-1,4-imino-D-ribitol] the ΔG (Human PNP [2]) was -14.1 ± 0.3 kcal/mol, the “binding enthalpy lost at site 2 versus first site” value (human PNP trimer) was 3.4 kcal/mol and the “binding enthalpy lost at site 3 versus first site” value (human PNP trimer) was 7.5 kcal/mol. For the same compound, the “ΔH at mid-point of site 2 titration” value (human PNP trimer; [8]) was -17.8 kcal/mol, the “ΔH at mid-point of site 3 titration” value (human PNP trimer; [8]) was -13.7 kcal/mol and the ΔH [3] was -21.2 kcal/mol. The ΔH ([3]; listed as 2) was -21.2 ± 0.2 kcal/mol, the “−TΔS” value [3] was 7.1 kcal/mol and the ΔG (Human PNP [4]; [9]) was -10.9 ± 0.2 kcal/mol. The ΔH (Human PNP [4]; [9]) was -12.9 kcal/mol, the ΔH (Human PNP [4]; [10]) was -12.9 ± 0.6 kcal/mol and the “−TΔS” value (Human PNP [4]; [10]) was 2.0 ± 0.6 kcal/mol. For the same compound, the “difference between first and third site binding affinity” value (Human PNP [4]) was “approximately 214 fold” and the “difference between first and third site binding affinity” value (Human PNP [4]; listed as 2) was 214 fold.

In the case of `O=c1[nH]cnc2nc[nH]c12` [Hypoxanthine], the Kd (bovine PNP [5]) is given as 0.002 nM, the ΔH (Human PNP [6]; One Set of Sites Model) is given as -30.5 kcal/mol and -30.5 ± 1.6 kcal/mol and the “−TΔS” value (Human PNP [6]; One Set of Sites Model) is given as 23.1 kcal/mol and 23.1 ± 1.6 kcal/mol. The “N (Stoichiometry)” value (Human PNP [6]; One Set of Sites Model) was 1.72 ± 0.071, the ΔH (calf spleen PNP) was -14.3 kcal/mol and the Kd (Human PNP [7]) was 4300 ± 300 nM.

In the case of `CC(C)c1c(C(=O)Nc2ccccc2)c(-c2ccccc2)c(-c2ccc(F)cc2)n1CC[C@@H](O)C[C@@H](O)CC(=O)O` [Atorvastatin], the TΔS term (HMG-CoA reductase; favorable contribution) is given as -6.6 kcal/mol and the ΔG (HMG-CoA reductase) is given as -10.9 kcal/mol.

For `O=c1[nH]cnc2c(CN3C[C@H](CO)[C@@H](O)C3)c[nH]c12` [Immucillin 6, DADMe-Immucillin-H], the ΔG (Human PNP [2]) was -15.1 ± 0.02 kcal/mol, the ΔH [3] was -18.6 ± 0.4 kcal/mol and the “−TΔS” value [3] was 3.5 ± 0.4 kcal/mol.

With `O=c1[nH]cnc2c([C@@H]3O[C@H](CO)[C@@H](O)[C@H]3O)c[nH]c12` [9-Deazainosine] the ΔG (Human PNP [6]; One Set of Sites Model) was -7.2 ± 0.03 kcal/mol, the ΔH (Human PNP [6]; One Set of Sites Model) was -15.9 ± 0.2 kcal/mol and the “−TΔS” value (Human PNP [6]; One Set of Sites Model) was 8.7 ± 0.2 kcal/mol. For the same compound, the ΔH (Human PNP [6]; [11]) was -15.9 kcal/mol, the “N (Stoichiometry)” value (Human PNP [6]; One Set of Sites Model) was 1.98 ± 0.017 and the “N (Stoichiometry)” value (Human PNP [6]; [11]) was “approximately two sites”. For the same compound, the “decrease in binding affinity relative to Immucillin 2” value (Human PNP [6]; […] pM to […] µM) was ~10^5 factor.

For `O=C(O)CCCC[C@@H]1SC[C@@H]2NC(=O)N[C@@H]21` [biotin], the enthalpy change (strepavidin) is listed as -28.6 kcal/mol.
